Reference: patent US12612388B2, “Receptor-interacting protein 1 inhibitors including piperazine heterocyclic amide ureas” (SIRONAX LTD., priority 2020, dated 2026)

tested on: HT-29 cells; assay: Cellular RIP1 inhibitory activity: necroptosis of HT-29 cells induced by TNF-α/SMAC mimetic/zVAD-FMK, CellTiter-Glo viability; assay type: cell-based; conditions: Homo sapiens, HT-29, 20 h, read-out: EC50 (Cell activity; Necrosis or Necroptosis Inhibitory Activity)
Description: In Table 2, activity is provided as follows: +++=0.1 nM≤EC50<100 nM; ++=100 nM≤EC50K<1000 nM; +=1000 nM≤EC50K<10000 nM.
Compounds 1-67 (denoted as Compound Nos. 1 through 67 in Table 1) of the disclosure were tested for binding and cellular RIP1 inhibitory activity following the experimental procedures described below.
Cell line: HT-29 (ATCC® HTB-38™)
Culture medium: McCOY's 5A, Gibco, Cat No. 16600-082
DMSO: Sigma, Cat No. 67-68-5, 1 L
Assay plate: Corning #3903
Compound dilution plate: Corning #3357
Inducers: TNFα, GenScript, Cat No. Z01001-50,
SmacM, Cat. No., HY-15989, MedChemExpress (MCE)
Z_VAD FMK, TargetMol, T6013
Cell Titer-Glo® Luminescent Cell Viability Assay Kit: Promega, Cat No. G7573
1. HT-29 cells were checked every day to make sure that they were healthy and growing as expected. They were subjected to sub-culturing when they were approximately 80% confluent.
2. The culture medium, McCOY's 5A medium (Gibco, Cat No. 16600-082) with 10% fetal bovine serum or FBS (Gibco, Cat No. 10099-141C), was pre-warmed in a 37° C. water bath for at least 30 min.
3. When the cells had reached a desired level of confluency of 80% in a T75 flask, the medium was aspirated, and the cells were washed with warm phosphate buffered saline or PBS two times.
4. 2-3 ml fresh warm trypsin (Gibco, Cat No. 25200-056) solution was added to the washed cells. The flask with the cells was transferred to a 37° C. incubator.
5. After 5 minutes, the side of the flask was tapped, and the flask was examined under a microscope for detachment of the cells to the flask. If necessary, the cells were kept in the incubator for an additional 5-10 minutes, with occasional tapping, until lifting was complete.
6. The trypsin reaction was neutralized by transferring 6-9 ml cell culture medium to sterile 15 ml conical tubes, and by centrifuging the cell culture at 300×g for 7 minutes to pellet the cells (supernatant decanted).
7. The cells were resuspended in fresh cell culture medium and the cell counting was performed using a hemocytometer.
8. 100 μl of the resuspended cell culture medium containing ˜5,000 cells were transferred into each well of the sterile 96-well cell culture plate (Corning 3903) and cultured overnight at 37° C. with 5% CO2.
Compound Titration and Treatment
1. All test compounds were dissolved in DMSO (Dimethyl sulfoxide) to create a 20 mM stock.
2. 3 μl of each compound 20 mM stock was mixed with 27 μl DMSO, and the compound solution was further diluted at a titration ratio of 1:3 (20 μl compound solution+40 μl DMSO) till the 10 points end.
3. All culture medium was removed from assay plates filled with HT-29 cell cultures. The cells were then washed with 1 PBS, and resuspended in fresh, FBS-free McCOY's 5A medium containing a cocktail of TNF-α (10 ng/ml), a SMAC mimetic compound (6 μM) and Z-VAD-fluoromethylketone or zVAD-FMK (10 μM) to stimulate the HT-29 cells to increase RIP1 kinase levels and necroptosis.
4. 0.5 μL of the diluted compound solution was added to the corresponding 96-well assay plates.
5. The assay plates were incubated for 20 hours at 37° C. with 5% CO2.
1. The CellTiter-Glo® Luminescent Cell Viability Assay was employed to detect the ATP levels of viable HT-29 cells.
2. The CellTiter-Glo® buffer and the lyophilized substrate were equilibrated to room temperature prior to use.
3. The CellTiter-Glo® substrate was resuspended with CellTiter-Glo® buffer, then mixed by gently vortexing to obtain a homogeneous solution.
4. 20 μl the enzyme/substrate mixture was transferred by multi-channel pipetting into 96-well assay plates.
5. The assay plates were placed on an orbital shaker and the contents were shaken for 3 minutes to induce cell lysis.
6. The assay plates were incubated at room temperature for 10 minutes to stabilize the luminescent signal.
7. The luminescence signals were read and recorded with EnVision.
8. The geometric mean EC50 values were calculated from 10 points response dose with duplicates. […]

| SMILES | EC50 |
| --- | --- |
| CCNC(=O)c1ccnc(N2CCN(C(=O)N3N=CC[C@H]3c3cc(F)cc(F)c3)CC2)n1 [Compound 35, (S)-2-(4-(5-(3,5-difluorophenyl)-4,5-dihydro-1H-pyrazole-1-carbonyl)piperazin-1-yl)-N-ethylpyrimidine-4-carboxamide] | 0.1 to 100 nM |

same assay, conditions: Homo sapiens; HT-29 cells; TNF-α 10 ng/ml, SMAC mimetic 6 μM, zVAD-FMK 10 μM; 20 hours; geometric mean, 10 points, duplicates; read-out: EC50 (Cell activity; Necrosis or Necroptosis Inhibitory Activity)

| SMILES | EC50 |
| --- | --- |
| CCN(O)C(=O)c1nc(N2CCN(C(=O)N3N=CC[C@H]3c3cc(F)cc(F)c3)CC2)ncc1F [Compound 11, (S)-2-(4-(5-(3,5-difluorophenyl)-4,5-dihydro-1H-pyrazole-1-carbonyl)piperazin-1-yl)-N-ethyl-5-fluoro-N-hydroxypyrimidine-4-carboxamide] | 0.1 to 100 nM |
| N#Cc1cc(F)cc([C@@H]2CC=NN2C(=O)N2CCN(c3ncc(F)c(C(=O)N4CC(OCC5CC5)C4)n3)CC2)c1 [Compound 59, (S)-3-(1-(4-(4-(3-(cyclopropylmethoxy)azetidine-1-carbonyl)-5-fluoropyrimidin-2-yl)piperazine-1-carbonyl)-4,5-dihydro-1H-pyrazol-5-yl)-5-fluorobenzo nitrile] | 0.1 to 100 nM |
| CC1CN(C(=O)c2nc(N3CCN(C(=O)N4N=CC[C@H]4c4cc(F)cc(F)c4)CC3)ncc2F)C1 [Compound 56, (S)-(5-(3,5-difluorophenyl)-4,5-dihydro-1H-pyrazol-1-yl)(4-(5-fluoro-4-(3-methylazetidine-1-carbonyl)pyrimidin-2-yl)piperazin-1-yl)methanone] | 0.1 to 100 nM |
| COC1CN(C(=O)c2nc(N3CCN(C(=O)N4N=CC[C@H]4c4cncc(Cl)c4)CC3)ncc2Cl)C1 (stereo in doubt) [Compound 65, (5-chloro-2-(4-(5-(5-chloropyridin-3-yl)-4,5-dihydro-1H-pyrazole-1-carbonyl)piperazin-1-yl)pyrimidin-4-yl)(3-methoxyazetidin-1-yl)methanone] | 0.1 to 100 nM |
| C=C1CN(C(=O)c2nc(N3CCN(C(=O)N4N=CC[C@H]4c4cc(F)cc(F)c4)CC3)ncc2F)C1 [Compound 55, (S)-(5-(3,5-difluorophenyl)-4,5-dihydro-1H-pyrazol-1-yl)(4-(5-fluoro-4-(3-methyleneazetidine-1-carbonyl)pyrimidin-2-yl)piperazin-1-yl)methanone] | 0.1 to 100 nM |
| N#CCC1CN(C(=O)c2nc(N3CCN(C(=O)N4N=CC[C@H]4c4cc(F)cc(F)c4)CC3)ncc2F)C1 [Compound 58, (S)-2-(1-(2-(4-(5-(3,5-difluorophenyl)-4,5-dihydro-1H-pyrazole-1-carbonyl)piperazin-1-yl)-5-fluoropyrimidine-4-carbonyl)azetidin-3-yl)acetonitrile] | 0.1 to 100 nM |
| COC1CN(C(=O)c2nc(N3CCN(C(=O)N4N=CC[C@H]4c4cc(F)cc(F)c4)CC3)ncc2F)C1 [Compound 21, (S)-(5-(3,5-difluorophenyl)-4,5-dihydro-1H-pyrazol-1-yl)(4-(5-fluoro-4-(3-methoxyazetidine-1-carbonyl)pyrimidin-2-yl)piperazin-1-yl)methanone] | 0.1 to 100 nM |
| N#C[C@H]1CCN(C(=O)c2nc(N3CCN(C(=O)N4N=CC[C@H]4c4cc(F)cc(F)c4)CC3)ncc2F)C1 [Compound 15, (3S)-1-(2-(4-(5-(3,5-difluorophenyl)-4,5-dihydro-1H-pyrazole-1-carbonyl)piperazin-1-yl)-5-fluoropyrimidine-4-carbonyl)pyrrolidine-3-carbonitrile] | 0.1 to 100 nM |
| CC1(O)CN(C(=O)c2nc(N3CCN(C(=O)N4N=CC[C@H]4c4cc(F)cc(F)c4)CC3)ncc2F)C1 [Compound 50, (S)-(5-(3,5-difluorophenyl)-4,5-dihydro-1H-pyrazol-1-yl)(4-(5-fluoro-4-(3-hydroxy-3-methylazetidine-1-carbonyl)pyrimidin-2-yl)piperazin-1-yl)methanone] | 0.1 to 100 nM |
| COC1CN(C(=O)c2nc(N3CCN(C(=O)N4N=CC[C@H]4c4cc(F)cc(C#N)c4)CC3)ncc2Cl)C1 [Compound 63, (S)-3-(1-(4-(5-chloro-4-(3-methoxyazetidine-1-carbonyl)pyrimidin-2-yl)piperazin-1-carbonyl)-4,5-dihydro-1H-pyrazol-5-yl)-5-fluorobenzonitrile] | 0.1 to 100 nM |
| COC1(C)CN(C(=O)c2nc(N3CCN(C(=O)N4N=CC[C@H]4c4cc(F)cc(F)c4)CC3)ncc2F)C1 [Compound 22, (S)-(5-(3,5-difluorophenyl)-4,5-dihydro-1H-pyrazol-1-yl)(4-(5-fluoro-4-(3-methoxy-3-methylazetidine-1-carbonyl)pyrimidin-2-yl)piperazin-1-yl)methanone] | 0.1 to 100 nM |
| O=C(c1nc(N2CCN(C(=O)N3N=CC[C@H]3c3cc(F)cc(F)c3)CC2)ncc1F)N1CC2(CCC2)C1 [Compound 29, (S)-(5-(3,5-difluorophenyl)-4,5-dihydro-1H-pyrazol-1-yl)(4-(5-fluoro-4-(2-azaspiro[3.3]heptane-2-carbonyl)pyrimidin-2-yl)piperazin-1-yl)methanone] | 0.1 to 100 nM |
| CN(C)C1CN(C(=O)c2nc(N3CCN(C(=O)N4N=CC[C@H]4c4cc(F)cc(F)c4)CC3)ncc2F)C1 [Compound 33, (S)-(5-(3,5-difluorophenyl)-4,5-dihydro-1H-pyrazol-1-yl)(4-(4-(3-(dimethylamino)azetidine-1-carbonyl)-5-fluoropyrimidin-2-yl)piperazin-1-yl)methanone] | 0.1 to 100 nM |
| O=C(O)c1ccnc(N2CCN(C(=O)N3N=CC[C@H]3c3cc(F)cc(F)c3)CC2)n1 [Compound 44, (S)-2-(4-(5-(3,5-difluorophenyl)-4,5-dihydro-1H-pyrazole-1-carbonyl)piperazin-1-yl)pyrimidine-4-carboxylic acid] | 1000 to 10000 nM |
| O=C(c1nc(N2CCN(C(=O)N3N=CC[C@H]3c3cc(F)cc(F)c3)CC2)ncc1F)N1CCCC1 [Compound 8, (S)-(5-(3,5-difluorophenyl)-4,5-dihydro-1H-pyrazol-1-yl)(4-(5-fluoro-4-(pyrrolidine-1-carbonyl)pyrimidin-2-yl)piperazin-1-yl)methanone] | 0.1 to 100 nM |
| NC(=O)c1nc(N2CCN(C(=O)N3N=CC[C@H]3c3cc(F)cc(F)c3)CC2)ncc1F [Compound 48, (S)-2-(4-(5-(3,5-difluorophenyl)-4,5-dihydro-1H-pyrazole-1-carbonyl)piperazin-1-yl)-5-fluoropyrimidine-4-carboxamide] | 0.1 to 100 nM |
| NC(=O)[C@H]1CCN(C(=O)c2nc(N3CCN(C(=O)N4N=CC[C@H]4c4cc(F)cc(F)c4)CC3)ncc2F)C1 [Compound 26, (S)-1-(2-(4-((S)-5-(3,5-difluorophenyl)-4,5-dihydro-1H-pyrazole-1-carbonyl)piperazin-1-yl)-5-fluoropyrimidine-4-carbonyl)pyrrolidine-3-carboxamide] | 0.1 to 100 nM |
| NC(=O)c1cncc(N2CCN(C(=O)N3N=CC[C@H]3c3cc(F)cc(F)c3)CC2)n1 [Compound 39, (S)-6-(4-(5-(3,5-difluorophenyl)-4,5-dihydro-1H-pyrazole-1-carbonyl)piperazin-1-yl)pyrazine-2-carboxamide] | 100 to 1000 nM |
| CC(C)OC1CN(C(=O)c2nc(N3CCN(C(=O)N4N=CC[C@H]4c4cc(F)cc(F)c4)CC3)ncc2F)C1 [Compound 24, (S)-(5-(3,5-difluorophenyl)-4,5-dihydro-1H-pyrazol-1-yl)(4-(5-fluoro-4-(3-isopropoxyazetidine-1-carbonyl)pyrimidin-2-yl)piperazin-1-yl)methanone] | 0.1 to 100 nM |
